Measured values reported in patent US20040058948A1, “Mappicine analogs, methods of inhibiting retroviral reverse transcriptase and methods of treating retroviruses” (priority 2002, published 2004).
Values joined by “and” are separate entries in the source; they are usually repeats but may differ in a detail not shown here. Equal values may be shown once.

Columns and labels:
[1] = target: T1, RNA-dependent DNA polymerase activity of HIV reverse transcriptase (Human immunodeficiency virus type 1 group M subtype B, UniProt P04585); assay: RNA-dependent DNA polymerase activity assay of HIV reverse transcriptase; assay type: biochemical, HIV-1; details: 10 μM inhibitor concentration, activity with analog / without analog x 100
T1 construct: made in house
Protocol: In separate, representative assays, mappicine analogs were tested for their ability to inhibit the RNA-dependent DNA polymerase activity of HIV reverse transcriptase and for their ability to inhibit the RNase H activity of HIV reverse transcriptase. The assay for RNA-dependent DNA polymerase activity is discussed in Borkow, G. et al., “Inhibition of the Ribonuclease H and DNA Polymerase Activities of HIV-1 Reverse Transcriptase by N-(4-tert-Butylbenzoyl)-2-hydroxy-1-naphthaldehyde Hydrazone,” Biochemistry 1997, 36, 3179-3185, a copy of which is attached hereto, and the disclosure of which is incorporated herein by reference. Assays were carried out in the absence and in the presence of mappicine analogs (10 μM final concentration). The results are reported as % residual activity, which is the RNA-dependent DNA polymerase activity of the enzyme in the presence of the mappicine analog divided by the RNA-dependent activity of the enzyme in the absence of the mappicine analog, multiplied by 100.

[2] = target: RNase H activity of HIV reverse transcriptase (Human immunodeficiency virus type 1 group M subtype B, UniProt P04585); assay: Fluorescence (FRET)-based RNase H activity assay of HIV reverse transcriptase; assay type: biochemical, HIV-1; parameters: final concentration of 2.5 nM of the p51/p66 RT heterodimer in the assay; made in house; details: 10 μM inhibitor concentration, activity with analog / without analog x 100
Protocol: Recently, a fluorescence-based assay to perform preliminary screens in search of HIV RNase H inhibitors has been developed. The assay, which is carried out in 96-well microplates and is adaptable to robotics, is the first high-throughput screen for RNase H and is described in further detail in the Experimental section. HIV-1 RT and human RNase H were cloned, and thus comparative analysis of inhibitor action could be conducted simultaneously.
The assay for RNase H activity of HIV reverse transcriptase was the fluorescence-based assay described in detail in the Experimental section and discussed in U.S. Provisional Patent Application Serial No. 60/318,359. Assays were carried out in the absence and in the presence of mappicine analogs (10 μM final concentration). The results are reported as % residual activity, which is the RNase H activity of the enzyme in the presence of the mappicine analog divided by the RNase H activity of the enzyme in the absence of the mappicine analog, multiplied by 100. Alternatively, the results are reported as % inhibition, which is calculated as the ratio of the RNase H activity of the enzyme in the presence of the mappicine analog to the enzyme activity in the absence of the mappicine analog, multiplied by 100, and then subtracting this number from 100.
Assay for Ribonuclease H Activity Based on Fluorescence Resonance Energy Transfer (FRET)
Preparation of the Fluorophore-RNA/Quencher-DNA Hybrid Duplex Substrate.
The RNA/DNA hybrid duplex substrate for use in the assay comprises an RNA oligonucleotide of sequence 5′-GAU CUG AGC CUG GGA GCU-3′, modified at the 3′-end with Aminolink-2 and derivatized with fluorescein isothiocyanate, to provide a modified RNA oligonucleotide of the sequence 5′-GAU CUG AGC CUG GGA GCU-fluorescein-3′, annealed to a complementary DNA oligonucleotide of the sequence 5′-AGC TCC CAG GCT CAG ATC-3′ modified at the 5′-end with Aminolink-2 and derivatized with the FRET acceptor DABCYL succinimidyl ester, to provide a modified DNA oligonucleotide of the sequence 5′-DABCYL-AGC TCC CAG GCT CAG ATC-3′.
To prepare the 3′-fluorescein-RNA/5′-DABCYL-DNA hybrid duplex substrate, a known amount of 3′-fluorescein-RNA was dissolved in 20 mM Tris buffer (pH 8.0, 37° C.) to provide a final concentration of 5 μM. Two equivalents of the 5′-DABCYL-DNA oligonucleotide were added, and the mixture was heated to 90° C. for 5 min and cooled slowly to room temperature to allow duplex formation. The positioning of the fluorescein donor at the 3′-end of the RNA oligonucleotide and the DABCYL acceptor at the 5′-end of the DNA oligonucleotide provides a very close proximity of the donor and acceptor that results in a very intense quenching of the fluorescein emission in the intact RNA/DNA hybrid duplex substrate due to the spectral overlap of the fluorescence emission of fluorescein with the absorption spectrum of DABCYL. In addition, DABCYL is non-fluorescent, and thus cannot contribute any light emission. Both of these factors result in a very low background and provide a high signal-to-noise in the assay measurements. The ratio of the donor fluorescence in the absence and in the presence of its quencher is approximately fifteen-fold.
Microplate Assay Protocol for the Measurement of RNase H Activity Using the RNA/DNA Hybrid Duplex Substrate.
Reaction assay mixtures contained 5 μl of a stock solution of 2.5 μM RNA/DNA hybrid duplex substrate added to 85 μl of assay buffer (50 mM Tris, pH 8.0, 37° C., containing 60 mM KCl and 2.5 mM MgCl2), prepared in the wells of a 96-well fluorescence microtiter plate, and warmed to 37° C. using the temperature control of the SpectraMax Gemini XS microplate spectrofluorometer (Molecular Devices). Reactions were started by the addition of 5 μl of a solution of recombinant HIV-1 reverse transcriptase (usually providing a final concentration of 2.5 nM of the p51/p66 RT heterodimer in the assay), and mixing using the automatic mixing function of the microplate spectrofluorometer. […]

SMILES	Residual activity (%) Polymerase [1]	Residual activity (%) RNase H [2]	Residual activity (%) Polymerase ([1]; 10 µM)	Residual activity (%) RNase H ([2]; 10 µM)
COc1ccc2nc3c(c(-c4ccccc4)c2c1)Cn1c-3cc(C(O)C(C)(C)C)c(C)c1=O (stereo not drawn) [3Dβ]	85%	70%		
COc1ccc2nc3c(c(-c4ccccc4)c2c1)Cn1c-3cc(C(=O)CCC2CCCCC2)c(C)c1=O [3Dδκ]	81%	97%		
COc1ccc2nc3c(c(-c4ccccc4)c2c1)Cn1c-3cc(C(=O)Cc2ccccc2)c(C)c1=O [3Dεκ]	73%	88%		
CCC(=O)c1cc2n(c(=O)c1C)Cc1c-2nc2ccccc2c1[Si](C)(C)C(C)(C)C [4Aακ]	43%	76%		
Cc1c(C(=O)C(C)(C)C)cc2n(c1=O)Cc1c-2nc2ccccc2c1[Si](C)(C)C(C)(C)C [4Aβκ]	79%	70%		
Cc1c(C(=O)CCC2CCCCC2)cc2n(c1=O)Cc1c-2nc2ccccc2c1[Si](C)(C)C(C)(C)C [4Aδκ]	39%	102%		
CCC(=O)c1cc2n(c(=O)c1C)Cc1c-2nc2ccc(F)cc2c1[Si](C)(C)C(C)(C)C [4Bακ]	42%	77%		
Cc1c(C(=O)C(C)(C)C)cc2n(c1=O)Cc1c-2nc2ccc(F)cc2c1[Si](C)(C)C(C)(C)C [4Bβκ]	82%	79%		
Cc1c(C(O)CCC2CCCCC2)cc2n(c1=O)Cc1c-2nc2ccc(F)cc2c1[Si](C)(C)C(C)(C)C (stereo not drawn) [4Bδ]	44%	90%		
Cc1c(C(=O)CCC2CCCCC2)cc2n(c1=O)Cc1c-2nc2ccc(F)cc2c1[Si](C)(C)C(C)(C)C [4Bδκ]	56%	96%		
Cc1c(C(O)Cc2ccccc2)cc2n(c1=O)Cc1c-2nc2ccc(F)cc2c1[Si](C)(C)C(C)(C)C (stereo not drawn) [4Bε]	61%	89%		
CCC(O)c1cc2n(c(=O)c1C)Cc1c-2nc2ccc(C)cc2c1[Si](C)(C)C(C)(C)C (stereo not drawn) [4Cα]	94%	91%		
CCC(=O)c1cc2n(c(=O)c1C)Cc1c-2nc2ccc(C)cc2c1[Si](C)(C)C(C)(C)C [4Cακ]	52%	90%		
Cc1ccc2nc3c(c([Si](C)(C)C(C)(C)C)c2c1)Cn1c-3cc(C(O)C(C)(C)C)c(C)c1=O (stereo not drawn) [4Cβ]	67%	94%		
Cc1ccc2nc3c(c([Si](C)(C)C(C)(C)C)c2c1)Cn1c-3cc(C(=O)C(C)(C)C)c(C)c1=O [4Cβκ]	67%	65%		
Cc1ccc2nc3c(c([Si](C)(C)C(C)(C)C)c2c1)Cn1c-3cc(C(=O)CCC2CCCCC2)c(C)c1=O [4Cδκ]	52%	96%		
CCC(O)c1cc2n(c(=O)c1C)Cc1c-2nc2ccc(OC)cc2c1[Si](C)(C)C(C)(C)C (stereo not drawn) [4Dα]	77%	79%		
CCC(=O)c1cc2n(c(=O)c1C)Cc1c-2nc2ccc(OC)cc2c1[Si](C)(C)C(C)(C)C [4Dακ]	80%	77%		

SMILES	Residual activity (%) Polymerase [1]	Residual activity (%) RNase H [2]	Residual activity (%) Polymerase ([1]; 10 µM)	Residual activity (%) RNase H ([2]; 10 µM)
COc1ccc2nc3c(c([Si](C)(C)C(C)(C)C)c2c1)Cn1c-3cc(C(=O)CCC2CCCCC2)c(C)c1=O [4Dδκ]			50% and 64%	83% and 97%
CCC(O)c1cc2n(c(=O)c1C)Cc1c-2nc2ccccc2c1[Si](C)(C)C (stereo not drawn) [5Aα]			32%	93%
CCC(=O)c1cc2n(c(=O)c1C)Cc1c-2nc2ccccc2c1[Si](C)(C)C [5Aακ]	91%	103%		
Cc1c(C(=O)C(C)(C)C)cc2n(c1=O)Cc1c-2nc2ccccc2c1[Si](C)(C)C [5Aβκ]	47%	97%		
Cc1c(C(=O)CCC2CCCCC2)cc2n(c1=O)Cc1c-2nc2ccccc2c1[Si](C)(C)C [5Aδκ]	90%	75%		
CCC(O)c1cc2n(c(=O)c1C)Cc1c-2nc2ccc(F)cc2c1[Si](C)(C)C (stereo not drawn) [5Bα]	82%	105%		
CCC(=O)c1cc2n(c(=O)c1C)Cc1c-2nc2ccc(F)cc2c1[Si](C)(C)C [5Bακ]	74%	89%		
Cc1c(C(=O)C(C)(C)C)cc2n(c1=O)Cc1c-2nc2ccc(F)cc2c1[Si](C)(C)C [5Bβκ]	63%	100%		
Cc1c(C(=O)CCC2CCCCC2)cc2n(c1=O)Cc1c-2nc2ccc(F)cc2c1[Si](C)(C)C [5Bδκ]	46%	78%		
Cc1c(C(O)Cc2ccccc2)cc2n(c1=O)Cc1c-2nc2ccc(F)cc2c1[Si](C)(C)C (stereo not drawn) [5Bε]	49%	88%		
CCC(O)c1cc2n(c(=O)c1C)Cc1c-2nc2ccc(C)cc2c1[Si](C)(C)C (stereo not drawn) [5Cα]	68%	62%		
CCC(=O)c1cc2n(c(=O)c1C)Cc1c-2nc2ccc(C)cc2c1[Si](C)(C)C [5Cακ]	93%	109%		
Cc1ccc2nc3c(c([Si](C)(C)C)c2c1)Cn1c-3cc(C(=O)C(C)(C)C)c(C)c1=O [5Cβκ]	76%	92%		
Cc1ccc2nc3c(c([Si](C)(C)C)c2c1)Cn1c-3cc(C(=O)CCC2CCCCC2)c(C)c1=O [5Cδκ]	59%	99%		
CCC(=O)c1cc2n(c(=O)c1C)Cc1c-2nc2ccc(OC)cc2c1[Si](C)(C)C [5Dακ]	50%	86%		
COc1ccc2nc3c(c([Si](C)(C)C)c2c1)Cn1c-3cc(C(O)C(C)(C)C)c(C)c1=O (stereo not drawn) [5Dβ]	76%	102%		
COc1ccc2nc3c(c([Si](C)(C)C)c2c1)Cn1c-3cc(C(=O)C(C)(C)C)c(C)c1=O [5Dβκ]	64%	86%		
COc1ccc2nc3c(c([Si](C)(C)C)c2c1)Cn1c-3cc(C(O)CCC2CCCCC2)c(C)c1=O (stereo not drawn) [5Dδ]	57%	96%		
